Laboratory results: patent publication US12110313B2, “Engineered bacterial ribosome compositions and methods” (ARIZONA BOARD OF REGENTS ON BEHALF OF ARIZONA STATE …, priority 2019, dated 2024)
Numbering of substitutions follows the chain as printed.

B1: Asp29: murine INF-β with replacement of Asn29 with Asp29 (protein, UniProt P01575 22-182, looked up, variant N29D)
Interferon beta: INYKQLQLQERTNIRKCQELLEQLNGKIDLTYRADFKIPMEMTEKMQKSYTAFAIQEMLQNVFLVFRNNFSSTGWNETIVVRLLDELHQQTVFLKTVLEEKQEERLTWEMSSTALHLKSYYWRVQRYLKLMKYNSYAWMVVRAEIFRNFLIIRRLTRNFQN
B2: non-glycosylated IFN-β: non-glycosylated murine interferon-β (protein, UniProt P01575 22-182, looked up)
Interferon beta: B1 Interferon beta with D29N
modifications: non-glycosylated
B3: Ala29: murine INF-β with replacement of Asn29 with Ala29 (protein, UniProt P01575 22-182, looked up, variant N29A)
Interferon beta: B1 Interferon beta with D29A

Key:
[1] = tested on: wild-type ribosomes; assay: Incorporation of glycosylated amino acids into proteins from activated suppressor tRNAs by wild-type ribosomes; type: biochemical, E. coli; conditions: nonsense codon suppression with activated suppressor tRNA
Excerpt: FIG. 3 depicts glycosylated amino acids incorporated into proteins by wild-type E. coli ribosomes.
Many glycosylated amino acids can be incorporated into proteins in quite good yield from activated suppressor tRNAs by nonsense codon suppression employing wild-type ribosomes. However, in numerous experiments, when any of these was O- or N-acetylated at one or more positions, the result was virtually complete loss of the ability of the activated tRNAs to suppress nonsense codons. Accordingly, we have used O-GlcNAc-puromycin (FIG. 4) to select modified ribosomes capable of incorporating N-acetylglycosyl amino acids.
Post-translational protein glycosylation is both ubiquitous in nature and quite important. […] However, for whatever reason(s), neither O- nor N-acetylated glycosyl amino acids could be incorporated in good yield with wild-type ribosomes. We wish to select modified ribosomes capable of incorporating O- or N-acetylated glycosyl amino acids efficiently.

[2] = tested on: CD40 expression in RAW 264.7 mouse macrophage cells; assay: CD40 upregulation in RAW 264.7 cells by flow cytometry with PE-conjugated anti-mouse CD40 antibody; type: cell-based
Description: FIG. 6. Flow cytometry analysis of RAW 264.7 cells treated with murine IFNs and probed with PE-conjugated anti-mouse CD40 antibody. Upper left, 0.6 pg/mL glycosylated IFN; upper right, 6 pg/mL non-glycosylated IFN; lower left, 0.6 pg/mL non-glycosylated IFN; lower right, control lacking IFN.
These four modified INF-βs were tested in parallel with wild-type (fully glycosylated) mouse IFN-β for their activities. Our assay system uses RAW 264.7 mouse macrophage cells (ATCC TIB-71), which have been transformed using Abelson murine leukemia virus. […] CD40 upregulation was probed using a PE (phycoerythrin)-conjugated anti-mouse CD40 antibody. As shown (FIG. 6), this assay system has been used successfully to compare fully glycosylated and non-glycosylated murine INF-βs by flow cytometry.

[3] = tested on: antiviral activity; conditions: murine INF-β, modification at position 29; cited from earlier work

Molecule	response in CD40 upregulation assay [2]	reduction of antiviral activity from wild-type [3]	other results
N[C@@H](Cc1ccc(OC2O[C@H](CO)[C@@H](O[C@@H]3O[C@H](CO)[C@H](O)[C@H](O)[C@H]3O)[C@H](O)[C@H]2O)cc1)C(=O)O (stereo partly drawn) [O-lactosyltyrosine]	–	–	incorporation into proteins by wild-type ribosomes [1]: incorporated into proteins quite well
glycosylated IFN-β: fully glycosylated murine interferon-β	dose-dependent responses	–	potency relative to non-glycosylated IFN-β ([2]; CD40 upregulation): about 10 fold
B1	–	two-fold	–
B2	dose-dependent responses	–	–
B3	–	10 fold	–
